These results are taken from publication PMC11545999, “Angular-Substituted [1,4]Thiazino[3,4-a]Isoquinolines: Biological Evaluation and In Silico Studies on DPP-IV Inhibition” (International Journal of Molecular Sciences, 2024).

Structures are written as SMILES.

In general, IC50 refers to the midpoint of a concentration-inhibition curve. Read a low IC50 as inhibition by little substance.

In this assay the target is T1, DPP-IV (Homo sapiens, UniProt P27487).
T1 construct: gene DPP4
Briefly: fluorogenic AMC substrate cleavage assay (SensoLyte AMC DPP-IV Assay Kit). Type of assay: biochemical.

T1 sequence (P27487 39-766): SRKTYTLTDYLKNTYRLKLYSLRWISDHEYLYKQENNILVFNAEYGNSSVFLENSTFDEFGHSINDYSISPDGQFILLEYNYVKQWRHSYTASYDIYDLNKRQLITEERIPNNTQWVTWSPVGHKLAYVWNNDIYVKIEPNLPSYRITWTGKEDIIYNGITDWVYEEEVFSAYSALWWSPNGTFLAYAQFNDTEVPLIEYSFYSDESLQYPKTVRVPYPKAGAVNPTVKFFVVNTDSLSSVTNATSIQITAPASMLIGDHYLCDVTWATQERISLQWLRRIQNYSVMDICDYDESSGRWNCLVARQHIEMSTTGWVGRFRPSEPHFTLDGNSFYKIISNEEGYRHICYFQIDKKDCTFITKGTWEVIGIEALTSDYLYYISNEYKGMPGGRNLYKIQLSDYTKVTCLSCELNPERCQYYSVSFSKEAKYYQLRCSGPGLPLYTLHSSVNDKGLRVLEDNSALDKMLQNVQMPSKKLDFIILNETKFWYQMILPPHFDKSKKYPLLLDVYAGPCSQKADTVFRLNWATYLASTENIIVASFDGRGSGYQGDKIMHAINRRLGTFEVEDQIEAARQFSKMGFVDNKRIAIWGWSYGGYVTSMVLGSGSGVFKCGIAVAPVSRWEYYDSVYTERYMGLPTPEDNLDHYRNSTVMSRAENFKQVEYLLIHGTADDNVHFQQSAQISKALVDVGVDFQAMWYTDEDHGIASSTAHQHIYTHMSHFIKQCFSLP

`COc1cc2c(cc1OC)[C@@]1(c3ccc(C(F)(F)F)cc3)[C@@H](C(=O)O)SCC(=O)N1CC2` (relative stereo) [4f]: half-maximal inhibition (IC50) required 15.9 µM.
The figure for `COc1cc2c(cc1OC)[C@@]1(c3ccc(F)cc3)[C@@H](C(=O)O)SCC(=O)N1CC2` (relative stereo) [4g] is 0.35 µM; for `COc1cc2c(cc1OC)C1C(C(=O)O)SCC(=O)N1CC2` (stereo not drawn) [4a] it is 41.1 µM.
